# Measurements as given in patent US11066381B2, “Urolithins-containing aqueous solution, dried solid composition thereof and production method therefor, and urolithins stabilizing method” (DAICEL CORPORATION, priority 2016, dated 2021).
# Assay: Stability improvement test for urolithin (residual ratio by HPLC after storage at 60° C.)
# Type: physicochemical
# Settings: for Urolithin A residual ratio (%) (60° C.) 1 week later / Urolithin A residual ratio (%) (60° C.) 2 weeks later: aqueous solution with 10% ethanol, 10% glycerin, 0.005% urolithin A; for Urolithin A residual ratio (%) (60° C.) 1 week later: stored at 60° C. for 1 week; for Urolithin A residual ratio (%) (60° C.) 2 weeks later: stored at 60° C. for 2 weeks
# Method: The stability of urolithin can be studied by measuring the total amount of urolithin before storage and the total amount of urolithin after storage under a temperature condition of 60° C. for one week or two weeks, and then calculating the urolithin residual ratio (%) according to the following calculation equation. As the method for measuring urolithin, for example, the method using HPLC described in Examples can be used. Urolithin residual ratio (%)=(total amount of urolithin after storage/total amount of urolithin before storage)×100 [Calculation Equation]
# A description is given below for a case where urolithin A was used as the urolithin. Analysis of urolithin A was carried out using HPLC. More specifically, urolithin A (manufactured by Dalton Farma) was dissolved in an appropriate solvent to prepare a solution, and the solution was analyzed under the following HPLC conditions. Using the purity (%) (A) and the peak area value (B) in the HPLC, the factor of urolithin A and the urolithin A concentration in the sample were calculated according to the following calculation equation (1) and calculation equation (2). (Calculation Equation for Factor of Urolithin A) Factor of urolithin A=(B)/(concentration of standard solution of urolithin A (mg/L)×(A)/100) (1) (Calculation Equation for Urolithin A Concentration in Sample) Urolithin A concentration in sample (mg/L)=peak area value of urolithin A in sample/factor of urolithin A (2)
# To an aqueous solution containing 10% ethanol and 10% glycerin, urolithin A was added to a concentration of 0.005%, and then the urolithin A was dissolved therein. To this solution, collagen (Hanamai) was added to a concentration of 0.5% to prepare a urolithin A-containing aqueous solution. The urolithin A content in the urolithin A-containing aqueous solution was measured after one week of storage and after two weeks of storage under a temperature condition of 60° C. By comparing the urolithin A contents measured before and after the storage, the residual ratio was calculated to evaluate the stability.
# The same operation as in Example 1 was carried out except that collagen was not added, to provide a control as Comparative Example 1.
# The residual ratio of urolithin A was calculated according to the following calculation equation (3). Urolithin residual ratio (%)=(content of urolithin A after storage/content of urolithin A before storage)×100 (3)
# [1] = collagen 0% (Comparative Example 1)
structure (smiles),measurement,setting,value
"O=c1oc2cc(O)ccc2c2ccc(O)cc12 [Urolithin A, urolithin A]",Urolithin A residual ratio (%) (60° C.) 1 week later,[1],66.9%
same,Urolithin A residual ratio (%) (60° C.) 2 weeks later,[1],45.0%
same,Urolithin A residual ratio (%) (60° C.) 1 week later,collagen 0.5% (Example 1),92.4%
same,Urolithin A residual ratio (%) (60° C.) 2 weeks later,collagen 0.5% (Example 1),92.2%
same,stability of urolithin A,"in the presence of collagen versus without collagen, storage at 60° C.",increases in the presence of collagen
